The results in this text go back to patent publication US20100215632A1, “BIOMARKERS OF SIRTUIN ACTIVITY AND METHODS OF USE THEREOF” (Sirtris Pharmaceuticals, Inc., priority 2007, published 2010).

Test [1] deals with FGF21. The test can be described thus: FGF21 expression in liver of diet-induced obesity mice (microarray). The class given is in vivo, mouse. Conditions: 3 day liver, oral once per day; resveratrol 1000 mg/kg, Compound 1 100 mg/kg. Here is the method:
(§1) As with Example 2, the diet-induced obesity (D10) model was used. 51 C57BL/6 mice are started on a 60% kcal high fat diet. Mice are weighed once a week for approximately 7 weeks on the high fat diet until the average body weight of the D10 mice is 40 grams. The study is divided into 3 groups of […] mice per group with mean average body weight/cage. Animals are dosed orally once per day as follows: Resveratrol at 1000 mg/kg in 2% HPMC/0.2% DOSS, Compound 1 at 100 mg/kg in 2% HPMC/0.2% DOSS and vehicle control animals 2% HPMC/0.2% DOSS. Concentration of compound is adjusted to proper dose according to the mean weight for each group weekly. Mice are typically dosed in the a.m. and are only dosed in the p.m. on days following a 16 hour fast. On day 3 of dosing, liver tissue is collected from the mice 1 hour post dose.
The liver is isolated as in Example 2. Total RNA from the liver sample is extracted with standard techniques (e.g. PureLink Micro-to-Midi Total RNA Purification System, Invitrogen cat. #12183-018).
Expression of multiple genes was determine by microarray as in Example 4.

In test [2] the test system is liver. Put plainly: Overall pattern of change in gene expression in 3 day liver of diet-induced obesity mice (gene chip). The note with it: 1000 mg/kg oral once per day. It is filed as in vivo, mouse.
Description: A mouse model of diet induced obesity was used to identify sirtuin biomarkers in mice following dosing with two chemically unrelated sirtuin activators. Obesity and type II diabetes are being intensively studied in animal models, particularly the mouse. One such model is commonly referred to as the diet-induced obesity (DIO) model. Typically, C57BL/6 males are fed a high fat diet for 8 to 12 weeks and, as a result, become obese, mildly to moderately hyperglycemic, and glucose intolerant. These mice are then used to study the genetic and physiological mechanisms of obesity and type II diabetes.
as §1, with “51” for “As with Example 2, the diet-induced obesity (D10) model was used. 51”, “DIO” for “D10”, “Each group is split up into 3 sub-groups for a 3, 16 and 42” for “On”, “collection time point.” for “3 of dosing, liver tissue is collected from the mice 1 hour post dose.”
Once dosing starts data collections are as follow. Day 3: collect tissues, blood and glucose from 6 mice from each group 1 hour post dose. Also take fed glucose from remaining groups. Day 13: Intraperitoneal glucose tolerance test (IPGTT). Day 16: collect tissues, blood and glucose from 6 mice from each group 1 hour post dose. Also take fed glucose from remaining groups. Day 28: Fasted glucose. […]
Total RNA isolated from either Example 2 above (mouse tissues following in vivo treatment with either Compound 1 or resveratrol) or Example 3 above (human WBC following ex vivo treatment with either Compound 2 or resveratrol) was analyzed using an Affymetrix GeneChip specific to either the mouse or human genome. […]

Regarding `O=C(Nc1ccccc1-c1cn2c(CN3CCNCC3)csc2n1)c1cnc2ccccc2n1` [Compound 1], the “FGF21 mRNA levels versus control mice” value in test [1] was “markedly higher”.

Regarding `Oc1ccc(C=Cc2cc(O)cc(O)c2)cc1` [resveratrol, 3,5,4′-trihydroxystilbene], in test [2], the “activity of PGC1a and PPAR family members” value is “increased activity of PGC1a and PPAR family members”; the “activity of hepatic transcription factors involved in glucose homeostasis and the stress response pathway” value is recorded as “increased activity of hepatic transcription factors”; the “inflammatory signaling (pattern of gene expression)” value is given as “decreased inflammatory signaling”. Also, the “FGF21 mRNA levels versus control mice” value in test [1] was “markedly higher”.
